Test results reported in paper PMC9221509, “Discovery of a Novel Antimicrobial Peptide, Temporin-PKE, from the Skin Secretion of Pelophylax kl. esculentus, and Evaluation of Its Structure-Activity Relationships” (Biomolecules, 2022).
Non-standard residues stand in square brackets, D forms with d. Residues, ends and D or L forms follow the SMILES beside them.

Columns and labels:
[1] = tested on: K. pneumoniae (ATCC 43816); format: cell-based, Klebsiella pneumoniae; settings: ATCC 43816, 24 h
Procedure: (§1) The antimicrobial activities of peptides were evaluated against the Gram-positive bacteria, S. aureus (ATCC 6538), methicillin-resistant Staphylococcus aureus (MRSA) (NCTC 12493), Enterococcus faecalis (E. faecalis) (NCTC 12697); the Gram-negative bacteria, E. coli (ATCC CRM 8739), Klebsiella pneumoniae (K. pneumoniae) (ATCC 43816), Pseudomonas aeruginosa (P. aeruginosa) (ATCC CRM 9027); and the yeast, Candida albicans (C. albicans) (ATCC CRM 10231). Clinical isolates of MRSA (B042 V2E1 A), E. coli (ATCC BAA-2340), K. pneumoniae (ATCC BAA-1705), and P. aeruginosa (B004 V2S2 B) were also used to determine their antimicrobial activities. The suspension of microorganisms in the logarithmic growth phase with a specific final density (Gram-negative and Gram-positive bacteria: 5 × 10^5 CFU/mL; yeast: 1 × 10^6 CFU/mL) was incubated with different peptide concentrations from 1 µM to 512 µM at 37 °C for 24 h. PBS was used as the negative control, and norfloxacin and amphotericin B were selected as the positive control for bacteria and yeast, respectively. Since the Norfloxacin had weak activities against P. aeruginosa (B004 V2S2 B) and K. pneumoniae (ATCC BAA 1705), gentamicin was used as the positive control for these two bacterial strains. The absorbance of each well was obtained using a microplate reader (EL808, Biolise BioTek, Winooski, VT, USA) set at 550 nm wavelength. The MIC value was the lowest concentration of a peptide that inhibits visible bacterial growth. Once the MIC values were determined, an aliquot from the bacterial culture exposed to the peptide at or above its MIC value was inoculated on a Mueller Hinton agar (MHA) and was incubated at 37 for 18 h. The MBC value was the lowest concentration of a peptide that kills 99.9% of bacteria.
(§2) According to the procedures in a previous article, the analysis of the sensitivity of the peptides was determined by measuring MIC values in the presence of different types of salts and 10% fetal bovine serum. MRSA (NCTC 12493) and K. pneumoniae (ATCC 43816) were selected as the subjects of these assays. Various salts at different concentrations, including 150 mM NaCl, 4.5 mM KCl, 6 μM NH4Cl, 1 mM MgCl2, […], […], and 10% serum (Gibco, Auckland, New Zealand), were added to the MHB medium for the examination of the MIC values which were determined as described in Section 2.7.

[2] = tested on: MRSA (NCTC 12493); format: cell-based, methicillin-resistant Staphylococcus aureus; settings: NCTC 12493, 24 h
Procedure: as §1, §2

[3] = tested on: E. faecalis (NCTC 12697) biofilm; format: cell-based, Enterococcus faecalis; settings: NCTC 12697, 24 h
Procedure: (§3) The anti-biofilm activities of the peptides against S. aureus (ATCC 6538), MRSA (NCTC 12493), E. faecalis (NCTC 12697), E. coli (ATCC CRM 8739), K. pneumoniae (ATCC 43816), and P. aeruginosa (ATCC CRM 9027), were evaluated. For the MBIC assay, 99 µL of bacterial suspension (5 × 10^5 CFU/mL) was mixed with 1 µL of serial dilutions (from 100 µM to 51,200 µM) of temporin-PKE and its analogues in a 96-well plate, and the plate was incubated in a moist shaking incubator at a speed of 200 rpm at 37 °C for 24 h. For the MBEC assay, 100 µL of bacterial suspension (5 × 10^5 CFU/mL) in each well was seeded in a new 96-well plate, and the plate was put into the same shaking incubator for 24 h incubation to allow biofilm formation on the well. After biofilm formation, the biofilm in the plate was washed with PBS twice. The PBS was aspirated between washes to remove planktonic bacterial cells. The washed biofilm in each well was treated with 100 µL of serial dilutions (from 1 µM to 512 µM) of the test peptides. Then, the plate was incubated in the same shaking incubator for another 24 h. After being washed by PBS twice and fixed with methanol, the biofilm in each well was incubated with 100 µL of 0.1% crystal violet for 30 min, and the stained biofilm was dissolved in 100 µL of glacial acidic acid after drying. The solutions were transferred to a new microplate, and the absorbance of each well was measured using a microplate reader (EL808, Biolise BioTek, Winooski, VT, USA) set to 595 nm wavelength. The MBIC was the minimum concentration of the peptide showing no biofilm formation. The MBEC is the lowest concentration of the peptide capable of eradicating the mature biofilms, which had no biofilm in the well.

[4] = tested on: C. albicans (ATCC CRM 10231); experiment: organism not typed; format: cell-based, Candida albicans
Procedure: as §1

[5] = tested on: P. aeruginosa (ATCC CRM 9027) biofilm; format: cell-based, Pseudomonas aeruginosa; settings: ATCC CRM 9027, 24 h
Procedure: as §3

CC[C@@H](C)[C@@H](NC(=O)[C@H](CCCCN)NC(=O)[C@@H]1CCCN1C(=O)[C@H](CC(C)C)NC(=O)[C@H](CC(C)C)NC(=O)[C@H](CO)NC(=O)[C@H](CO)NC(=O)[C@H](CC(C)C)NC(=O)[C@H](C)NC(=O)CNC(=O)[C@@H](NC(=O)[C@@H](NC(=O)[C@H](CC(C)C)NC(=O)[C@@H]1CCCN1C(=O)[C@H](CC(C)C)NC(=O)[C@@H](N)Cc1ccccc1)[C@@H](C)CC)[C@@H](C)CC)C(=O)N[C@@H](Cc1ccccc1)C(N)=O [Temporin-PKE-i] (H-FLPLIIGALSSLLPK[dI]F-NH2)
2 µM: MIC against MRSA in the presence of 4 µM FeCl3 [2]
4 µM: MIC against MRSA in the presence of 2 mM CaCl2 [2] | MIC against MRSA in the presence of 150 mM NaCl [2] | MBIC [3]
>512 µM: MIC against K. pneumoniae in the presence of 4 µM FeCl3 [1] | MIC against K. pneumoniae in the presence of 6 µM NH4Cl [1] | MIC against K. pneumoniae in the presence of 8 µM ZnCl2 [1] | MIC against K. pneumoniae in the presence of 1 mM MgCl2 [1] | MIC against K. pneumoniae in the presence of 2 mM CaCl2 [1] | MIC against K. pneumoniae in the presence of 4.5 mM KCl [1] | MIC against K. pneumoniae in the presence of 150 mM NaCl [1] | MIC against K. pneumoniae in the presence of 10% FBS [1] | MIC against K. pneumoniae, Negative [1] | MBC ([4]; ATCC CRM 10231, 18 h, read-out: MBC) | MIC ([4]; ATCC CRM 10231, 24 h, read-out: MIC) | MBIC [5]
8 µM: MIC against MRSA in the presence of 10% FBS [2]
16 µM: MIC against MRSA in the presence of 8 µM ZnCl2 [2]
